Measured values as given in patent US20070117743A1, “New antitumoral compounds” (priority 2003, published 2007).
Read-outs that look alike come from different tables or passages of the source.

Key:
Format in all cases: cell-based, human
[1] = test system: HeLa; experiment: SRB colorimetric assay of cell growth and viability, HeLa; details: 48 hours exposure, SRB; for CC50: read-out: LC50 HELA
[2] = test system: LNCaP; experiment: SRB colorimetric assay of cell growth and viability, LNCaP; details: 48 hours exposure; for GI50: read-out: GI50 LN-caP; for CC50: read-out: LC50 LN-caP
[3] = test system: SK-BR-3; experiment: SRB colorimetric assay of cell growth and viability, SK-BR-3; details: 48 hours exposure
[4] = test system: HeLa-APL; experiment: SRB colorimetric assay of cell growth and viability, HeLa-APL; details: 48 hours exposure, SRB; for CC50: read-out: LC50 HELA-APL
[5] = test system: SK-MEL-28; experiment: SRB colorimetric assay of cell growth and viability, SK-MEL-28; details: 48 hours exposure; for CC50: read-out: LC50 MEL-28
[6] = test system: LoVo; experiment: SRB colorimetric assay of cell growth and viability, LoVo; details: 48 hours exposure, SRB; for CC50: read-out: LC50 LOVO
[7] = test system: A-549; experiment: SRB colorimetric assay of cell growth and viability, A-549; details: 48 hours exposure, SRB; for GI50: read-out: GI50 A-549; for CC50: read-out: LC50 A-549
[8] = test system: HT-29; experiment: SRB colorimetric assay of cell growth and viability, HT-29; details: 48 hours exposure, SRB; for GI50: read-out: GI50 HT-29; for CC50: read-out: LC50 HT-29
[9] = test system: LoVo-Dox; experiment: SRB colorimetric assay of cell growth and viability, LoVo-Dox; details: 48 hours exposure, SRB; for CC50: read-out: LC50 LOVO-DOX
In short: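 Here, cells grow drug-free for 18 h, then receive sample dilutions from 10 down to 10^−8 μg/mL for 48 h at 37° C. Protein-bound SRB is solubilized in Tris and quantified at 490 nm.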

[10] = test system: K-562; experiment: SRB colorimetric assay of cell growth and viability, K-562; details: 48 hours exposure, SRB; for CC50: read-out: LC50 K-562
[11] = test system: PANC-1; experiment: SRB colorimetric assay of cell growth and viability, PANC-1; details: 48 hours exposure, SRB; for CC50: read-out: LC50 PANC-1
[12] = test system: IGROV-1; experiment: SRB colorimetric assay of cell growth and viability, IGROV-1; details: 48 hours exposure
[13] = test system: IGROV-ET; experiment: SRB colorimetric assay of cell growth and viability, IGROV-ET; details: 48 hours exposure; for CC50: read-out: LC50 IGROV-ET
[14] = test system: DU-145; experiment: SRB colorimetric assay of cell growth and viability, DU-145; details: 48 hours exposure

## C/C=C1\NC(=O)[C@H](Cc2ccccc2)NC(=O)[C@@H](C(C)C)NC(=O)[C@@H]([C@@H](C)CC)NC(=O)[C@H](NC(=O)[C@H](NC(=O)[C@H](CCCNC(=O)C(F)(F)F)NC(=O)[C@H]2CCCN2C(=O)[C@H](NC(=O)[C@@H](NC(=O)[C@@H](NC(=O)[C@H](NC(=O)CC[C@@H](C)CC)C(C)C)[C@@H](C)O)C(C)C)C(C)C)[C@@H](C)CC)[C@@H](C)OC(=O)[C@H](C(C)C)NC1=O [Compound 96, [Orn(N^δTfa)^8, 4(S)MeHex^14]-Kahalalide F]
[1]
  GI50: 0.244 µM
  TGI HELA: 7.24E−07 Molar
  CC50: 2.59 µM
[2]; SRB
  TGI LN-caP: 4.60E−06 Molar
  GI50: 1.73 µM
  CC50: 6.35 µM
[3]; SRB
  GI50: 0.0648 µM
  LC50: 0.56 µM
  TGI SK-BR-3: 1.91E−07 Molar
[4]
  GI50: 0.686 µM
  TGI HELA-APL: 1.62E−06 Molar
  CC50: 3.82 µM
[5]; SRB
  GI50: 1.22 µM
  TGI MEL-28: 2.15E−06 Molar
  CC50: 3.77 µM
[6]
  GI50: 0.14 µM
  TGI LOVO: 2.64E−07 Molar
  CC50: 0.5 µM
[7]
  TGI A-549: 2.57E−06 Molar
  GI50: 1.26 µM
  CC50: 5.23 µM
[8]
  TGI HT-29: 2.11E−07 Molar
  GI50: 0.101 µM
  CC50: 0.442 µM
[9]
  GI50: 0.153 µM
  TGI LOVO-DOX: 2.93E−07 Molar
  CC50: 0.559 µM
[10]
  GI50: 4.5 µM
  TGI K-562: 6.35E−06 Molar
  CC50: 6.35 µM
[11]
  GI50: 6.04 µM
  TGI PANC-1: 6.35E−06 Molar
  CC50: 6.35 µM
[12]; SRB
  GI50: 0.184 µM
  LC50 (concentration causing 50% net cell killing): 0.607 µM
  TGI IGROV: 3.34E−07 Molar
[13]; SRB
  GI50: 0.178 µM
  TGI IGROV-ET: 3.32E−07 Molar
  CC50: 0.619 µM
[14]; SRB
  GI50: 0.985 µM
  LC50 (concentration causing 50% net cell kill): 3.81 µM
  TGI DU-145: 1.94E−06 Molar

## [D,L-Ser^2]-KF [Compound 64]
[1]
  GI50: ≥ 6.75 µM
  TGI HELA: 6.75E−06 Molar
  CC50: ≥ 6.75 µM
[2]
  TGI LN-caP: 3.99E−06 Molar
  GI50: 1.8 µM
  CC50: ≥ 6.75 µM
[3]
  GI50: ≥ 6.75 µM
  LC50: ≥ 6.75 µM
  TGI SK-BR-3: 6.75E−06 Molar
[4]
  GI50: ≥ 6.75 µM
  TGI HELA-APL: 6.75E−06 Molar
  CC50: ≥ 6.75 µM
[5]
  GI50: ≥ 6.75 µM
  TGI MEL-28: 6.75E−06 Molar
  CC50: ≥ 6.75 µM
[6]
  GI50: ≥ 6.75 µM
  TGI LOVO: 6.75E−06 Molar
  CC50: ≥ 6.75 µM
[7]
  TGI A-549: 6.75E−06 Molar
  GI50: ≥ 6.75 µM
  CC50: ≥ 6.75 µM
[8]
  TGI HT-29: 6.75E−06 Molar
  GI50: ≥ 6.75 µM
  CC50: ≥ 6.75 µM
[9]
  GI50: ≥ 6.75 µM
  TGI LOVO-DOX: 6.75E−06 Molar
  CC50: ≥ 6.75 µM
[10]
  GI50: ≥ 6.75 µM
  TGI K-562: 6.75E−06 Molar
  CC50: ≥ 6.75 µM
[11]
  GI50: ≥ 6.75 µM
  TGI PANC-1: 6.75E−06 Molar
  CC50: ≥ 6.75 µM
[12]
  GI50: ≥ 6.75 µM
  LC50 (concentration causing 50% net cell killing): ≥ 6.75 µM
  TGI IGROV: 6.75E−06 Molar
[13]
  GI50: ≥ 6.75 µM
  TGI IGROV-ET: 6.75E−06 Molar
  CC50: ≥ 6.75 µM
[14]
  GI50: ≥ 6.75 µM
  LC50 (concentration causing 50% net cell kill): ≥ 6.75 µM
  TGI DU-145: 6.75E−06 Molar
